# Source: patent US9029542B2 (priority 2011, dated 2015)
# Where “and” joins values, the source holds several entries; their conditions need not be identical. Equal entries are not always repeated. Where two headings read alike, the source gives them in different places.
# Tests used:
# cockspur grass = test: whole plant or invertebrate; format: in vivo; conditions: Echinochloa crus-galli, 120 h
# rape [1] = conditions: in vivo
# corn = conditions: in vivo
# rape [2] = test: whole plant or invertebrate; format: in vivo; conditions: 120 h
# soybean = conditions: in vivo
# Eclipta prostrata = test: whole plant or invertebrate; format: in vivo
# rice = conditions: in vivo
# cotton = conditions: in vivo
# Amaranthus retroflexus = test: whole plant or invertebrate; format: in vivo
# Wheat = conditions: in vivo
# Capsella bursa-pastoris = test: whole plant or invertebrate; format: in vivo; conditions: 600 h, read-out: weed clearing activity, Capsella bursa-pastoris Postemergence
# [3] = test system: weeds of the expanded weed killing spectrum; conditions: in vivo
# [4] = read-out: weed clearing activity, cockspur grass Root (Effect)
# [5] = read-out: weed clearing activity, cockspur grass Stem (Effect)
# [6] = read-out: weed clearing activity, rape Root (Effect)
# [7] = read-out: weed clearing activity, rape Stem (Effect)
# [8] = Eclipta prostrata, 600 h, read-out: weed clearing activity, Eclipta prostrata Postemergence
# [9] = Amaranthus retroflexus, 600 h, read-out: weed clearing activity, Amaranthus retroflexus Postemergence
smiles,measurement,setting,value
"CC(OC(=O)COc1ccc(Cl)cc1Cl)P1(=O)OCC(C)(C)CO1 (stereo not shown) [Compound 11, 2-(2,4-dichlorophenoxyethylacyloxy)(methyl)methyl-5,5-dimethyl-1,3,2-dioxaphosphorinan-2-one phosphonate]",pest or weed control at 10 µg/g,cockspur grass; [4],100%
same,pest or weed control at 100 µg/g,cockspur grass; [4],100%
same,pest or weed control at 10 µg/g,cockspur grass; [5],55%
same,pest or weed control at 100 µg/g,cockspur grass; [5],57%
same,"Inhibitory activity on the crops, Rape",rape [1],40
same,"Inhibitory activity on the crops, Corn",corn,0
same,plant injury at 10 µg/g,rape [2]; [6],99%
same,plant injury at 100 µg/g,rape [2]; [6],99%
same,plant injury at 10 µg/g,rape [2]; [7],88%
same,plant injury at 100 µg/g,rape [2]; [7],92%
same,"Inhibitory activity on the crops, Soybean",soybean,30
same,pest or weed control at 37.5 g/ha,Eclipta prostrata; [8],50%
same,pest or weed control at 75 g/ha,Eclipta prostrata; [8],85%
same,pest or weed control at 150 g/ha,Eclipta prostrata; [8],70%
same,"weed clearing activity, Eclipta prostrata Postemergence (※)",Eclipta prostrata; in vivo,90^※ %
same,"weed clearing activity, Eclipta prostrata Postemergence, value in parentheses",Eclipta prostrata; in vivo,85(70) %
same,"Inhibitory activity on the crops, Rice",rice,10
same,"Inhibitory activity on the crops, Cotton",cotton,30
same,pest or weed control at 37.5 g/ha,Amaranthus retroflexus; [9],70%
same,pest or weed control at 75 g/ha,Amaranthus retroflexus; [9],90%
same,pest or weed control at 150 g/ha,Amaranthus retroflexus; [9],80%
same,"weed clearing activity, Amaranthus retroflexus Postemergence (※)",Amaranthus retroflexus; in vivo,100^※ %
same,"weed clearing activity, Amaranthus retroflexus Postemergence, value in parentheses",Amaranthus retroflexus; in vivo,90(70) %
same,"Inhibitory activity on the crops, Wheat",Wheat,0
same,pest or weed control at 37.5 g/ha,Capsella bursa-pastoris,90%
same,pest or weed control at 75 g/ha,Capsella bursa-pastoris,100%
same,pest or weed control at 150 g/ha,Capsella bursa-pastoris,100%
same,"Activity of expanded weed killing spectrum, Abutilon theophrasti",[3],70% and 75%
same,"Activity of expanded weed killing spectrum, Alligator alternanthera",[3],60%
same,"Activity of expanded weed killing spectrum, Cayenne pepper",[3],70% and 75%
same,"Activity of expanded weed killing spectrum, Cucumis sativus",[3],40% and 50%
same,"Activity of expanded weed killing spectrum, Pakchoi",[3],85%
same,"Activity of expanded weed killing spectrum, Pigweed",[3],85%
same,"Activity of expanded weed killing spectrum, Tomato",[3],70% and 75%
